One test deals with Yeast/mold. As to the kind of experiment: Types of microbes at RO membrane after treatment (membrane autopsy): yeast/mold. Type of test: cell-based. The following applies: on RO membrane after 30 days of exposure to the biocide. Here is the method: (§1) Marsh water was fed into a storage tank via a 1200-foot long (365 m) hose. A biocide was added to the hose at a point 20 feet (6.1 m) before the hose connection to the storage tank. Water was fed from the storage tank to a reverse osmosis (RO) system equipped with an ultrafiltration (UF) membrane upstream of an RO membrane. In this system, the UF membrane was a non-protected membrane and the RO membrane was a protected membrane. An oxidation-reduction potential (ORP) electrode was in the water at a point upstream of and near the RO membrane, and the ORP electrode was connected to an ORP controller unit (ORP electrode: RD2, Hach Company). Measurements from the ORP were monitored, and the reducing agent was pumped into the RO system downstream of the ORP electrode as needed as indicated by the ORP reading from the ORP electrode. […]
(§2) The water was sampled at various times upstream of and near the UF membrane, and the water was also sampled at various times upstream of and near the RO membrane. […] Functionality of the RO membrane, types of microbes at RO membrane after treatment, biocide efficacy on microbes in water, and biocide efficacy for biofilm growth were determined. […]

A further test concerns biofilm. Put plainly: Biofilm coupon test with modified Robbins device (ATP, RLU). Type of test: cell-based, bacteria. The settings on record: water upstream of and near the RO membrane; average of 3 or 4 coupons. The procedure: as §1, §2
Another test relates to microbes in water. Put plainly: Biocide efficacy on microbes in water (planktonic biocidal reduction, marsh water). It counts as cell-based. Here is the method:
Marsh water was fed into a storage tank via a 1200-foot long (365 m) hose. A biocide was added to the hose at a point 20 feet (6.1 m) before the hose connection to the storage tank. Water was fed from the storage tank to a reverse osmosis (RO) system equipped with an ultrafiltration (UF) membrane upstream of an RO membrane. In this system, the UF membrane was a non-protected membrane and the RO membrane was a protected membrane. An oxidation-reduction potential (ORP) electrode was in the water at a point upstream of and near the RO membrane, and the ORP electrode was connected to an ORP controller unit (ORP electrode: RD2, Hach Company). Measurements from the ORP were monitored, and the reducing agent was pumped into the RO system downstream of the ORP electrode as needed as indicated by the ORP reading from the ORP electrode.
The biocides tested were bleach, 1,3-dibromo-5,5-dimethylhydantoin (Br2DMH; Albemarle Corporation), and an aqueous solution formed from bromine chloride and sulfamic acid containing over 50,000 ppm of active halogen having a pH in the range of 13 to 14 (BrCl/sulfamic acid; STABROM® 909 biocide, Albemarle Corporation). The reducing agent used with each biocide was […].
The water was sampled at various times upstream of and near the UF membrane, and the water was also sampled at various times upstream of and near the RO membrane. The duration of testing for each biocide was approximately 30 days. Functionality of the RO membrane, types of microbes at RO membrane after treatment, biocide efficacy on microbes in water, and biocide efficacy for biofilm growth were determined.
For the data in Table 3, the water was sampled upstream of and near the UF membrane, and upstream of and near the RO membrane The data in Table 3 are an average of samples from several days for planktonic biocidal reduction.

The next test concerns Aerobic bacteria. As to the kind of experiment: Types of microbes at RO membrane after treatment (membrane autopsy): aerobic bacteria. It counts as cell-based. The following applies: on RO membrane after 30 days of exposure to the biocide. The procedure: as §1, §2
[1] abbreviates: untreated water to RO feed water.

Turning to `CC1(C)C(=O)N(Br)C(=O)N1Br` [Br2DMH, 1,3-dibromo-5,5-dimethylhydantoin], the Yeast/mold rating entry with Yeast/mold is “Low (0 to 100)”. In addition, in the test with biofilm, the “ATP on Polyamide coupon” value was found to be 5825 RLU. Further, in the test on microbes in water (setting [1]), the “Log reduction, total (untreated to RO)” value is 2.1 and the “Reduction, total (untreated to RO)” value was 99.2%. The RO feed water in the test with microbes in water (water sampled upstream of and near the RO membrane, average of samples from several days) came out at 2.2 log cfu/mL. In the test on microbes in water (water sampled upstream of and near the UF membrane, average of samples from several days), this compound displayed a UF feed water of 3.1 log cfu/mL. Further, the Aerobic bacteria rating entry in the test with Aerobic bacteria is reported as “High (10,000 to 1,000,000)”.

The record behind these values is US20260167541A1, “BIOCIDAL CONTROL IN AQUEOUS MEMBRANE SEPARATION SYSTEMS” (Albemarle Corporation, priority 2023, published 2026).
